US11083701B2, “Dermatomycosis treatment agent” (priority 2015, dated 2021)
Converted amounts (≈) assume the structure as drawn.

Assays:
[1] = test system: T. mentagrophytes, IFM59813; test: Drug-sensitivity test, microdilution method, CLSI guidelines; format: cell-based, Trichophyton mentagrophytes
Protocol: (§1) The antimicrobial activity of therapeutic agents for treating dermatomycosis was evaluated and confirmed by performing a drug-sensitivity test with major pathogenic fungi in accordance with the CLSI (Clinical Laboratory Standards Institute, U.S.) guidelines. The pathogenic fungi selected were genus Trichophyton (T. rubrum, T. mentagrophytes), genus Microsporum (M. gypseum), genus Epidermophyton (E. floccosum), genus Candida (C. albicans), genus Aspergillus (A. fumigatus), and genus Cryptococcus (C. neoformans). The Examples show the test results. The antimicrobial activity of the compounds of the present invention (MIC, mg/ml) against T. mentagrophytes, which is a typical dermatophytic fungus, is as follows: tripotassium citrate 3.1; and trisodium citrate 6.3. A drug-sensitivity test with a fungus belonging to genus Malassezia (M. furfur) was also performed in accordance with the method of Sugita et al., which employs an agar dilution method (T. Sugita et al., J. Clinical Microbiology, 43, 2824-2829 (2005)). The antimicrobial activity against M. furfur (MIC, mg/ml) was as follows: tripotassium citrate 10.0.
In these drug-sensitivity tests, the medium contained Mg ions and Ca ions necessary for fungal conidia (spores) to germinate and grow. Because carboxyl groups of organic acids bind to these ions, organic acids have competitive inhibitory activity on fungal growth.
In the antimicrobial activity measurement method in accordance with the CLSI guidelines described above, an excessively large amount of magnesium ions and calcium ions is added to the RPMI-1640 medium for use. Thus, the trialkali metal salt of citric acid added to the test system binds completely to the excessively large amount of metal ions, resulting in an apparently large MIC value. For this reason, the ICP analytical method was performed to measure the content of magnesium ions and calcium ions in a test solution used as a blank test in this test system (a solution obtained by adding a solution containing spores of T. mentagrophytes to a RPMI-1640 medium solution, and performing a culture treatment) and to measure the content of magnesium ions and calcium ions in the original RPMI-1640 medium solution, thereby calculating the amount of alkali metal ions absorbed by the spores of T. mentagrophytes. The amount of the citric salt that can bind to all of the alkali metal ions absorbed by the spores is the substantial MIC value.
The antifungal activity of tripotassium citrate and trisodium citrate against a variety of pathogenic fungi was evaluated by performing a drug-sensitivity test. The test was performed using a microdilution method in accordance with the CLSI (Clinical Laboratory Standards Institute, U.S.) guidelines. […]

Candida krusei = conditions: Non-patent Literature 3; cited from earlier work
Aspergillus oryzae = conditions: Non-patent Literature 3; cited from earlier work
T. rubrum, IFM59814 = test: Drug-sensitivity test, microdilution method, CLSI guidelines; format: cell-based, Trichophyton rubrum
Protocol: as §1, with “10.0. […]” for “10.0.”
(§2) The antifungal activity of tripotassium citrate and trisodium citrate against a variety of pathogenic fungi was evaluated by performing a drug-sensitivity test. […]

M. gypseum, IFM58916 = test: as above; format: cell-based, Microsporum gypseum
Protocol: as §1, with “10.0. […]” for “10.0.”
as §2

E. floccosum, IFM53345 = test: as above; format: cell-based, Epidermophyton floccosum
Protocol: as §1, with “10.0. […]” for “10.0.”
as §2

C. albicans, IFM5740 = test: as above; format: cell-based, Candida albicans
Protocol: as §1, with “10.0. […]” for “10.0.”
as §2

A. fumigatus, IFM4942 = test: as above; format: cell-based, Aspergillus fumigatus
Protocol: as §1, with “10.0. […]” for “10.0.”
as §2

C. neoformans, IFM5807 = test: as above; format: cell-based, Cryptococcus neoformans
Protocol: as §1, with “10.0. […]” for “10.0.”
as §2

M. furfur = test: Malassezia drug-sensitivity test, method of Sugita et al. (agar dilution); format: cell-based; conditions: mLNA medium, 32° C., 7 days
Protocol: as §1
The antimicrobial activity of tripotassium citrate against fungi belonging to genus Malassezia was evaluated by performing a drug-sensitivity test with human-related Malassezia species, in accordance with the method disclosed in Sugita et al. (2005). […]

[2] = test system: hyperkeratotic tinea (Trichophyton mentagrophytes isolated); test: Human case, Example 3: external treatment of hyperkeratotic tinea; format: in vivo; conditions: 0.5% test solution in 20% ethanol, sprayed three times daily, after about 3 months
Protocol: (§3) The curative action of trialkali metal salts of citric acid on dermatomycosis was determined based on whether there was a therapeutic effect on human tinea. The cases of tinea used in the test include a variety of cases, such as vesicular tinea on the skin, interdigital tinea, hyperkeratotic tinea, tinea corporis, and tinea unguium. […] In these cases, no skin irritation due to the medicinal agents was confirmed. In many cases described in the Examples, Trichophyton fungus was isolated and identified as a pathogenic fungus; additionally, Example 10 describes a case in which Candida was isolated and identified, and Example 11 describes a case in which Aspergillus was isolated and identified.
20% ethanol was added to 5.3 g of tripotassium citrate monohydrate to give 1000 g, thereby preparing a 0.5% test solution. The 0.5% test solution was applied to hyperkeratotic tinea that extensively developed on the arch on the sole of a foot by spraying the solution three times daily. […] From the area affected by this tinea, Trichophyton mentagrophytes, which is one type of Trichophyton fungi, was isolated and confirmed.

vesicular tinea = test: Human case, Example 4: external treatment of vesicular tinea; format: in vivo; conditions: 3% test solution, sprayed twice daily; symptom practically disappeared after about 1 month, treatment continued about 1 month more
Protocol: as §3
20 mL of glycerin (84-87% aqueous solution) was added to 63.6 g of tripotassium citrate monohydrate, and 15% ethanol was further added thereto to give 2 L, thereby preparing a 3% test solution. This 3% test solution was applied twice daily, by spraying the solution, to vesicular tinea that extensively developed on the arch of the left foot. After about 1 month, the skin symptom practically disappeared.

tinea corporis = test: Human case, Example 5: external treatment of tinea corporis; format: in vivo; conditions: 3% test solution, sprayed twice daily, after about 2 months
Protocol: as §3
A 3% test solution of tripotassium citrate prepared in the same manner as in Example 4 was sprayed twice daily onto tinea corporis that extensively developed over the left part of the buttocks. […] Although light brown pigmentation developed on the healed skin, it faded away over time and became less prominent.

[3] = test system: thin hyperkeratotic tinea (Trichophyton rubrum isolated); test: Human case, Example 6: external treatment of thin hyperkeratotic tinea; format: in vivo; conditions: 3% test solution, sprayed once daily, after about 1 month
Protocol: as §3
A 3% test solution prepared in the same manner as in Example 4 was sprayed once daily onto thin hyperkeratotic tinea that extensively developed over around the tip of the nails on the sole of both feet. […] From this affected area of the skin, Trichophyton rubrum was isolated and confirmed.

interdigital tinea = test: Human case, Example 7: external treatment of interdigital tinea; format: in vivo; conditions: 3% test solution, sprayed once daily, after about 2 months
Protocol: as §3
A 3% test solution prepared in the same manner as in Example 4 was sprayed once daily onto interdigital tinea that extensively developed between the toes of the feet.

[4] = test system: tinea in four nails of the left foot; test: Human case, Example 8: immersion treatment of toenail tinea; format: in vivo; conditions: entire foot immersed 1 hour daily in 3% test solution, after a half year
Protocol: as §3
In the case in which tinea developed in all four nails except the fourth nail of the left foot, the entire foot was immersed for 1 hour daily in a 3% test solution prepared in the same manner as in Example 4. Over the course of the treatment, new nails grew from the base of the nails.

[5] = test system: tinea of nail and surrounding skin (Trichophyton rubrum isolated); test: Human case, Example 9: immersion treatment of fingernail tinea; format: in vivo; conditions: 5% test solution, finger immersed 5 hours once every 2 days, after 3 months
Protocol: as §3
20 mL of glycerin (84-87% aqueous solution) was added to 106 g of tripotassium citrate monohydrate, and 15% ethanol was further added thereto to give 2 L, thereby preparing a 5% test solution. About 2 mL of this test solution was placed into a commercially available fingerstall (size M). The middle finger of the right hand, which developed tinea on the right edge of the nail and the surrounding skin from the tip to the base of the nail, was immersed in the solution for 5 hours once every 2 days. […] From the nail specimen of this case, a Trichophyton fungus was isolated, and confirmed to be Trichophyton rubrum by gene analysis.

[6] = test system: tinea unguium (Clavispora lusitaniae isolated); test: Human case, Example 10: external treatment of tinea unguium; format: in vivo; conditions: 5% solution, sprayed once daily, after one and a half months
Protocol: as §3
A 5% solution of tripotassium citrate prepared in the same manner as in Example 9 was sufficiently sprayed once daily on tinea unguium on the tip of the nail of the fourth finger of the right hand. […] From the nail specimen of this affected area, a Candida fungus was isolated and confirmed to be Clavispora lusitaniae (the teleomorph of Candida lusitaniae) by gene analysis.

[7] = test system: small red papules (Aspergillus tubingensis as the pathogen); test: Human case, Example 11: external treatment of small red papules; format: in vivo; conditions: 5% solution, sprayed once daily, left chest
Protocol: as §3
A 5% solution of tripotassium citrate prepared in the same manner as in Example 9 was sprayed once daily on small red papules that developed on the left chest part. […] From the small red papules, a body fluid was collected, and the pathogen was cultured, followed by gene analysis, thereby confirming Aspergillus tubingensis as the pathogen.

tinea unguium = test: Human case, Example 12: external treatment of tinea unguium; format: in vivo; conditions: 10% aqueous solution, sprayed once daily, after a half year
Protocol: as §3
A 10% aqueous solution of tripotassium citrate was prepared. This 10% test solution was sprayed once daily on the right thumbnail, the entirety of which had developed tinea unguium.

human tinea = test: Curative action on human tinea, overall (Examples 3 to 13); format: in vivo; conditions: 5% solution applied; relapse of symptoms and pigmentation before the end result
Protocol: as §3
Applying a 5% tripotassium citrate solution on the small red papules on the body made the papules smooth, and relapse of symptoms was observed after every day, with development of pigmentation, and followed by complete cure; this phenomenon was observed quite frequently. The relapse of symptoms was caused by germination of spores, and tripotassium citrate appears to have induced the germination of spores. The biggest factor for the low likelihood of curing dermatomycosis is the presence of spores; even after a treatment with a medicinal agent, if spores remain, the spores germinate, enabling dermatomycosis to return. […]

small red papules = test: Human case, Example 13: external treatment of small red papules; format: in vivo; conditions: 3% (also printed 5%) test solution, sprayed once daily, left thigh
Protocol: as §3
A 3% test solution of trisodium citrate was prepared in the same manner as in Example 4. This 5% test solution was sprayed once daily on small red papules that developed on the left thigh.

Candida albicans = conditions: Non-patent Literature 5; cited from earlier work

Work on `C[C@@H]1[C@H](O)[C@@H](C)/C=C/C=C/C=C/C=C/C=C/C=C/C=C/[C@H](O[C@@H]2O[C@H](C)[C@@H](O)[C@H](N)[C@@H]2O)C[C@@H]2O[C@](O)(C[C@@H](O)C[C@@H](O)[C@H](O)CC[C@@H](O)C[C@@H](O)CC(=O)O[C@H]1C)C[C@H](O)[C@H]2C(=O)O` [amphotericin B, reference compound] yielded an MIC [1] of 2000 µg/mL (≈ 2160 µM).
For `O=C(O)CC(O)(CC(=O)O)C(=O)O` [citric acid, reference compound], the antimicrobial activity (Candida krusei) is listed as “did not exhibit antimicrobial activity” and the antimicrobial activity (Aspergillus oryzae) is listed as “did not exhibit antimicrobial activity”.
In the case of `O=C([O-])CC(O)(CC(=O)[O-])C(=O)[O-].[K+].[K+].[K+]` [tripotassium citrate], the MIC (T. rubrum, IFM59814) was 12500 µg/mL, the MIC [1] was 3100 µg/mL and the “corrected MIC value” ([1]; corrected for the metal ions absorbed by spores (ICP analysis)) was 54 µg/mL. It also gave an MIC (M. gypseum, IFM58916) of 12500 µg/mL, an MIC (E. floccosum, IFM53345) of 1600 µg/mL and an MIC (C. albicans, IFM5740) of 25000 µg/mL. The MIC (A. fumigatus, IFM4942) was 6300 µg/mL, the MIC (C. neoformans, IFM5807) was 390 µg/mL and the MIC (M. furfur) was 10000 µg/mL. The “curative effect on hyperkeratotic tinea” value [2] was “hyperkeratotic tinea disappeared, and clean skin grew back”, the “curative effect on vesicular tinea” value (vesicular tinea) was “this tinea was cured” and the “curative effect on tinea corporis” value (tinea corporis) was “tinea corporis disappeared, and healthy skin grew back”. The “curative effect on thin hyperkeratotic tinea” value [3] was “pink-color, healthy skin grew back”, the “curative effect on interdigital tinea” value (interdigital tinea) was “the skin symptom disappeared, and healthy skin grew back” and the “curative effect on nail tinea (foot)” value [4] was “tinea in all of the nails was fully cured”. For the same compound, the “curative effect on tinea of fingernail and surrounding skin” value [5] was “a healthy nail and skin grew back”, the “curative effect on tinea unguium (Candida)” value [6] was “tinea unguium was cured” and the “effect on small red papules (Aspergillus)” value [7] was “immediately shrank, and after one week, pigmentation and cicatrization occurred”. The “curative effect on tinea unguium” value (tinea unguium) was “a healthy nail returned” and the “effect on small red papules on the body” value (human tinea) was “complete cure”.
For `O=C([O-])CC(O)(CC(=O)[O-])C(=O)[O-].[Na+].[Na+].[Na+]` [trisodium citrate], the MIC [1] is listed as 6300 µg/mL, the “effect on small red papules” value (small red papules) is listed as “immediately shrank, and after 2 weeks, cicatrization and pigmentation occurred” and the antimicrobial activity (Candida krusei) is listed as “did not exhibit antimicrobial activity”. For the same compound, the antimicrobial activity (Aspergillus oryzae) was “did not exhibit antimicrobial activity” and the antimicrobial activity (Candida albicans) was “exhibited antimicrobial activity”.
